Common to all, as to type: functional
The test system of experiment [1] is Mycobacterium tuberculosis. Nature of the experiment: Antitubercular activity against Mycobacterium tuberculosis H37Rv by microplate alamar blue assay.
In experiment [2] the test system is Mycobacterium tuberculosis. Nature of the experiment: Antimycobacterial activity against Mycobacterium tuberculosis H37Rv after 3 to 7 days by rapid direct susceptibility test.
For experiment [3], the system named is Mycobacterium tuberculosis. Nature of the experiment: Antimycobacterial activity against Mycobacterium tuberculosis H37Rv ATCC 27294 by rapid direct susceptibility test.
For experiment [4], the system named is Mycolicibacterium smegmatis. Nature of the experiment: Antimycobacterial activity against Mycobacterium smegmatis CMCC 93202 after 72 hrs by double dilution method. The note with it: CMCC 93202, 72 h.

Values after ≈ are worked out from the molar mass of the structure shown.

In turn, `COc1cc(Cc2cnc(/N=C3\C(=O)N(CN4CCN(c5c(F)cc6c(=O)c(C(=O)O)cn(C7CC7)c6c5OC)CC4C)c4ccc(F)cc43)nc2N)cc(OC)c1OC` (configuration not stated) registered an MIC in experiment [1] of 0.78 to 3.13 µg/mL (≈ 0.946 to 3.79 µM). In the case of `COc1c(N2CCNC(C)C2)c(F)cc2c(=O)c(C(=O)O)cn(C3CC3)c12` (configuration not stated) [GATIFLOXACIN], the minimum inhibitory concentration (MIC) in experiment [2] was 0.5 µg/mL (≈ 1.33 µM). `COc1c(N2C[C@@H]3CCCN(CN4C(=O)/C(=N\NC(N)=S)c5cc(F)ccc54)[C@@H]3C2)c(F)cc2c(=O)c(C(=O)O)cn(C3CC3)c12`: the minimal inhibitory concentration (MIC) in experiment [3] and in experiment [4] was 0.39 to 16 µg/mL (≈ 0.598 to 24.6 µM) throughout. Take `COc1c(N2C[C@@H]3CCCN[C@@H]3C2)c(F)cc2c(=O)c(C(=O)O)cn(C3CC3)c12` [MOXIFLOXACIN]: the minimal inhibitory concentration (MIC) is 0.1 µg/mL (≈ 0.249 µM) in experiment [2], 0.1 to 1 µg/mL (≈ 0.249 to 2.49 µM) in experiment [3] and 0.1 to 1 µg/mL (≈ 0.249 to 2.49 µM) in experiment [4]. Regarding `COc1cc(Cc2cnc(/N=C3\C(=O)N(CN4CCN(c5c(F)cc6c(=O)c(C(=O)O)cn(C7CC7)c6c5OC)CC4C)c4ccc(Cl)cc43)nc2N)cc(OC)c1OC` (configuration not stated), in experiment [1], the MIC was 0.78 to 3.13 µg/mL (≈ 0.927 to 3.72 µM). On to `CCO/N=C1\C(=O)N(CN2CCC[C@H]3CN(c4c(F)cc5c(=O)c(C(=O)O)cn(C6CC6)c5c4OC)C[C@H]32)c2ccc(F)cc21`, for which the minimal inhibitory concentration (MIC) in experiment [3] and in experiment [4] was 0.39 to 16 µg/mL (≈ 0.627 to 25.7 µM) in each case. With `COc1c(N2C[C@@H]3CCCN(Cc4cn(CCN5C(=O)/C(=N/NC(N)=O)c6cc(Br)ccc65)nn4)[C@@H]3C2)c(F)cc2c(=O)c(C(=O)O)cn(C3CC3)c12`, the minimal inhibitory concentration (MIC) in experiment [2] fell in the range of 0.1 to 0.78 µg/mL (≈ 0.126 to 0.985 µM).

Turning to `COc1c(N2C[C@@H]3CCCN(Cc4cn(CCN5C(=O)/C(=N/O)c6cc(Br)ccc65)nn4)[C@@H]3C2)c(F)cc2c(=O)c(C(=O)O)cn(C3CC3)c12`, in experiment [2], the MIC was 0.1 to 0.78 µg/mL (≈ 0.133 to 1.04 µM). The compound `O=C(O)c1cn(C2CC2)c2cc(N3CCN(CCCN4C(=O)/C(=N/O)c5ccccc54)CC3)c(F)cc2c1=O` registered an MIC in experiment [2] of 0.1 to 64 µg/mL (≈ 0.187 to 120 µM). Consider `CCO/N=C1/C(=O)N(CCn2cc(CN3CCC[C@H]4CN(c5c(F)cc6c(=O)c(C(=O)O)cn(C7CC7)c6c5OC)C[C@H]43)nn2)c2ccccc21`, for which the MIC in experiment [2] lay within 0.1 to 0.78 µg/mL (≈ 0.143 to 1.12 µM).

Consider `COc1cc(Cc2cnc(/N=C3\C(=O)N(CN4CCN(c5cc6c(cc5F)c(=O)c(C(=O)O)cn6C5CC5)CC4)c4ccc(C)cc43)nc2N)cc(OC)c1OC`, for which, in experiment [1], the minimal inhibitory concentration (MIC) was in the range of 0.78 to 3.13 µg/mL (≈ 1 to 4.03 µM). On the same count and under the same terms, the figure for `CCn1cc(C(=O)O)c(=O)c2cc(F)c(N3CCN(CN4C(=O)/C(=N\c5ncc(Cc6cc(OC)c(OC)c(OC)c6)c(N)n5)c5cc(F)ccc54)CC3)cc21` is 0.78 to 3.13 µg/mL (≈ 1.01 to 4.07 µM). `COc1c(N2C[C@@H]3CCCN(CCN4C(=O)/C(=N\NC(N)=S)c5ccccc54)[C@@H]3C2)c(F)cc2c(=O)c(C(=O)O)cn(C3CC3)c12`: the MIC in experiment [3] and in experiment [4] was 0.39 to 16 µg/mL (≈ 0.602 to 24.7 µM) each time. In experiment [2], `Cc1ccc2c(c1)/C(=N\NC(N)=S)C(=O)N2CCCN1CCN(c2cc3c(cc2F)c(=O)c(C(=O)O)cn3C2CC2)CC1` returned a minimum inhibitory concentration (MIC) of 0.1 to 64 µg/mL (≈ 0.165 to 106 µM). `NC(=O)N/N=C1/C(=O)N(CCCN2CCN(c3cc4c(cc3F)c(=O)c(C(=O)O)cn4C3CC3)CC2)c2ccccc21` yielded a minimal inhibitory concentration (MIC) in experiment [2] of 0.1 to 64 µg/mL (≈ 0.174 to 111 µM). `COc1c(N2C[C@@H]3CCCN(CN4C(=O)/C(=N\O)c5cc(F)ccc54)[C@@H]3C2)c(F)cc2c(=O)c(C(=O)O)cn(C3CC3)c12`: the minimal inhibitory concentration (MIC) in experiment [3] and in experiment [4] was 0.39 to 16 µg/mL (≈ 0.657 to 27 µM) in each case. In experiment [2], `COc1c(N2C[C@@H]3CCCN(Cc4cn(CCN5C(=O)/C(=N/NC(N)=O)c6ccccc65)nn4)[C@@H]3C2)c(F)cc2c(=O)c(C(=O)O)cn(C3CC3)c12` showed an MIC of 0.1 to 0.78 µg/mL (≈ 0.14 to 1.09 µM). On the same count and under the same terms, the figure for `COc1c(N2C[C@@H]3CCCN(Cc4cn(CCN5C(=O)C(=O)c6ccccc65)nn4)[C@@H]3C2)c(F)cc2c(=O)c(C(=O)O)cn(C3CC3)c12` is 0.1 to 0.78 µg/mL (≈ 0.153 to 1.19 µM).

`COc1c(N2C[C@@H]3CCCN(CCN4C(=O)/C(=N\O)c5ccccc54)[C@@H]3C2)c(F)cc2c(=O)c(C(=O)O)cn(C3CC3)c12`: the minimal inhibitory concentration (MIC) in experiment [3] and in experiment [4] was 0.39 to 16 µg/mL (≈ 0.661 to 27.1 µM) in each case. Turning to `COc1c(N2C[C@@H]3CCCN(CCN4C(=O)/C(=N\NC(N)=O)c5cc(F)ccc54)[C@@H]3C2)c(F)cc2c(=O)c(C(=O)O)cn(C3CC3)c12`, the MIC in experiment [3] and in experiment [4] was 0.39 to 16 µg/mL (≈ 0.6 to 24.6 µM) each time. With `COc1c(N2C[C@@H]3CCCN(CN4C(=O)C(=O)c5ccccc54)[C@@H]3C2)c(F)cc2c(=O)c(C(=O)O)cn(C3CC3)c12`, the minimal inhibitory concentration (MIC) in experiment [3] and in experiment [4] was 0.39 to 16 µg/mL (≈ 0.696 to 28.5 µM) each time. `Cc1ccc2c(c1)/C(=N\NC(N)=O)C(=O)N2CCCN1CCN(c2cc3c(cc2F)c(=O)c(C(=O)O)cn3C2CC2)CC1` showed a minimal inhibitory concentration (MIC) in experiment [2] of 0.1 to 64 µg/mL (≈ 0.17 to 109 µM).

`COc1c(N2C[C@@H]3CCCN(CCN4C(=O)/C(=N\NC(N)=O)c5ccccc54)[C@@H]3C2)c(F)cc2c(=O)c(C(=O)O)cn(C3CC3)c12`: the MIC in experiment [3] and in experiment [4] was 0.39 to 16 µg/mL (≈ 0.617 to 25.3 µM) in each case.

For `COc1c(N2C[C@@H]3CCCN(CCN4C(=O)C(=O)c5cc(F)ccc54)[C@@H]3C2)c(F)cc2c(=O)c(C(=O)O)cn(C3CC3)c12`, the MIC in experiment [3] and in experiment [4] was 0.39 to 16 µg/mL (≈ 0.658 to 27 µM) in each case. For the compound `CO/N=C1\C(=O)N(CN2CCC[C@H]3CN(c4c(F)cc5c(=O)c(C(=O)O)cn(C6CC6)c5c4OC)C[C@H]32)c2ccccc21`, the MIC in experiment [3] and in experiment [4] was 0.39 to 16 µg/mL (≈ 0.661 to 27.1 µM) each time.
